Experiment [1] deals with T1, panel of 442 kinases (Homo sapiens, UniProt Q8TD19).
T1 construct: purchased KINOMEscan
T1 sequence (Q8TD19 1-979): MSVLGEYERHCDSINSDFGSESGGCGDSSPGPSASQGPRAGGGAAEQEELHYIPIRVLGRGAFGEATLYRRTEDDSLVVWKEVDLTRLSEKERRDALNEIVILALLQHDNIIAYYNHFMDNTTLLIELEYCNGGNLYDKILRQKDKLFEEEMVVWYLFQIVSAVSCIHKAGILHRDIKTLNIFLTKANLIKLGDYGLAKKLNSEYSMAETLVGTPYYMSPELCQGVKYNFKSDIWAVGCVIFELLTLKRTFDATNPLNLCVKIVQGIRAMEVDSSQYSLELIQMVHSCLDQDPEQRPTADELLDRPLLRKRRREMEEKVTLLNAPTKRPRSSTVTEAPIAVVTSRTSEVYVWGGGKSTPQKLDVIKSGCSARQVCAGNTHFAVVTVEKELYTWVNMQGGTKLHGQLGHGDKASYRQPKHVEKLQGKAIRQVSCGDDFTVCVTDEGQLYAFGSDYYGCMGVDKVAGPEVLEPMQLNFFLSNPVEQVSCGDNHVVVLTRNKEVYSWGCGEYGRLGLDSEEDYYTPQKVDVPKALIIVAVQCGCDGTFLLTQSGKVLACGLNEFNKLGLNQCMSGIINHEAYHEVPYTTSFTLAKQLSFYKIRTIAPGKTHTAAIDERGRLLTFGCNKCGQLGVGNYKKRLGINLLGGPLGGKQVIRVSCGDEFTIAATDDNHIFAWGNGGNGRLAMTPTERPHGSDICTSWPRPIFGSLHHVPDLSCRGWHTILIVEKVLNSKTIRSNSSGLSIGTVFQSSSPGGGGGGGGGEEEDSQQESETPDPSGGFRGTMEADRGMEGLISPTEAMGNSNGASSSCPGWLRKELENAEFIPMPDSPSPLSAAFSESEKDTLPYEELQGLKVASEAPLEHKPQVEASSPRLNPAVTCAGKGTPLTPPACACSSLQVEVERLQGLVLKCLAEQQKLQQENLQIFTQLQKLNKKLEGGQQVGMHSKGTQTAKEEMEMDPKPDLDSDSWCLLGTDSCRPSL
Type of experiment: binding. The note with it: Compound Concentration 10 µM. The text has this:
(§1) We assessed the selectivity of members of this scaffold using the KINOMEscan methodology across a near comprehensive panel of 442 kinases [[18,27]].

Experiment [2] concerns the target T2, panel of 442 kinases (Homo sapiens, UniProt Q13976).
T2 construct: purchased KINOMEscan
T2 sequence (Q13976 1-671): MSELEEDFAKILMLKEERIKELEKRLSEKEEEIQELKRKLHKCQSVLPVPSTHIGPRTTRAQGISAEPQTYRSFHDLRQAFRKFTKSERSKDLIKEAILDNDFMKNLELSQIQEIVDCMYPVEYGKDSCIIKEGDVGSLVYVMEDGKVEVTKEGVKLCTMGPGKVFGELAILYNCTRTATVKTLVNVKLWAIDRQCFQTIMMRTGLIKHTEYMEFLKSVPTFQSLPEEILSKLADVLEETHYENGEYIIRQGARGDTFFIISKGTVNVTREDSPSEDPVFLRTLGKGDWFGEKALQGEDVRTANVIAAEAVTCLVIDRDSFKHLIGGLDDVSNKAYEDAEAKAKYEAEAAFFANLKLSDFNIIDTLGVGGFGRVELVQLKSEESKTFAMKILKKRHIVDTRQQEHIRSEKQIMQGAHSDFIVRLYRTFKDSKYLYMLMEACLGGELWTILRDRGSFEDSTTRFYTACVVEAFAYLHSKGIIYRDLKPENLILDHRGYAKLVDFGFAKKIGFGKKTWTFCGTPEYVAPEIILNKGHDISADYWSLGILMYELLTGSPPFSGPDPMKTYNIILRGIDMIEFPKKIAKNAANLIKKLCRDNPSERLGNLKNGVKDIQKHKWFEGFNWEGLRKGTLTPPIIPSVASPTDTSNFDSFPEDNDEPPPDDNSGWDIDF
Type of experiment: binding. The note with it: Compound Concentration 10 µM.
From the text: as §1

We go through four compounds from article PMC3914206.

In the case of `COc1cc(C(=O)N2CCC(N3CCN(C)CC3)CC2)ccc1Nc1ncc2c(n1)N(C)c1ccccc1C(=O)N2C` [15 (LRRK2-IN-1)], the “KINOMEscan: NEK9” value on panel of 442 kinases [1] is 100. Besides, on panel of 442 kinases [2], the “KINOMEscan: PRKG1” value is reported as 98.

Regarding `COc1cc(C(=O)N2CCC(N3CCN(C)CC3)CC2)ccc1Nc1ncc2c(n1)N1CCc3cccc(c31)C(=O)N2C` [Compound 24], the “KINOMEscan: NEK9” value at panel of 442 kinases [1] is 87.

Turning to `COc1cc(C(=O)N2CCC(N3CCN(C)CC3)CC2)ccc1Nc1ncc2c(n1)N(C1CCCC1)c1ccccc1C(=O)N2C` [Compound 25, 11-cyclopentyl-2-((2-methoxy-4-(4-(4-methylpiperazin-1-yl)piperidine-1-carbonyl)phenyl)amino)-5-methyl-5H-benzo[e]pyrimido[5,4-b][1,4]diazepin-6(11H)-one], the “KINOMEscan: NEK9” value on panel of 442 kinases [1] is on record as 98. For the same compound, the “KINOMEscan: PRKG1” value at panel of 442 kinases [2] is reported as 100. For the compound `CCOc1cc(C(=O)N2CCC(N3CCN(C)CC3)CC2)ccc1Nc1ncc2c(n1)N(C1CCCC1)c1ccccc1C(=O)N2C` [Compound 26], at panel of 442 kinases [1], the “KINOMEscan: NEK9” value amounted to 100. Also, the “KINOMEscan: PRKG1” value on panel of 442 kinases [2] is 100.
